Structures can show the parent of a compound that is named as a salt.
Test system: HCT116
Settings: 72 h
Method in brief: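 HCT116 cells went into 1536-well plates at 250 per well. CellTiter-Glo luminescence was expressed relative to vehicle (0%) and positive control (-100%) and then pattern-corrected. Both IC50 and maximal efficacy were taken from four-parameter Hill fits.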

Structure (SMILES): O=C1CN(/N=C/c2ccc(-c3ccc([N+](=O)[O-])cc3)o2)C(=O)N1 [Dantrolene sodium]
- IC50 cell viability (ICRF193 0 nM): > 45.8 µM
- IC50 cell viability (ICRF193 200 nM): > 45.8 µM

Structure (SMILES): Cc1ccsc1/C=C/C1=NCCCN1C [Morantel tartrate]
- IC50 cell viability (ICRF193 0 nM): > 45.8 µM
- IC50 cell viability (ICRF193 200 nM): > 45.8 µM

Structure (SMILES): NCCS(=O)(=O)O [Taurine]
- IC50 cell viability (ICRF193 0 nM): > 45.8 µM
- IC50 cell viability (ICRF193 200 nM): > 45.8 µM

Structure (SMILES): CCN[C@H]1C[C@H](C)S(=O)(=O)c2sc(S(N)(=O)=O)cc21 [Dorzolamide hydrochloride]
- IC50 cell viability (ICRF193 0 nM): > 45.8 µM
- IC50 cell viability (ICRF193 200 nM): > 45.8 µM

Structure (SMILES): Cc1ccc(C(C)OC(=O)C2(C)CCC(C(=O)O)C2(C)C)cc1 (configuration not stated) [Tocanfil]
- IC50 cell viability (ICRF193 0 nM): > 45.8 µM
- IC50 cell viability (ICRF193 200 nM): > 45.8 µM

Structure (SMILES): CCN(CC)CC#CCOC(=O)C(O)(c1ccccc1)C1CCCCC1 (configuration not stated) [Oxybutynin chloride]
- IC50 cell viability (ICRF193 0 nM): > 45.8 µM
- IC50 cell viability (ICRF193 200 nM): > 45.8 µM

Structure (SMILES): Oc1ccc([C@@H]2CNCc3c2ccc(O)c3O)cc1O [Zelandopam]
- IC50 cell viability (ICRF193 0 nM): > 45.8 µM
- IC50 cell viability (ICRF193 200 nM): > 45.8 µM

Structure (SMILES): CCCCCCCCCCC[C@@H](C[C@@H]1OC(=O)[C@H]1CCCCCC)OC(=O)[C@H](CC(C)C)NC=O [Orlistat]
- IC50 cell viability (ICRF193 0 nM): > 45.8 µM
- IC50 cell viability (ICRF193 200 nM): > 45.8 µM

Structure (SMILES): CC(=O)OCC1=C(C(=O)O)N2C(=O)[C@@H](NC(=O)CC#N)[C@H]2SC1 [Cefacetrile]
- IC50 cell viability (ICRF193 0 nM): > 45.8 µM
- IC50 cell viability (ICRF193 200 nM): > 45.8 µM

Structure (SMILES): CCCCNc1ccc(C(=O)OCCN(CC)CC)cc1 [Depolipon]
- IC50 cell viability (ICRF193 0 nM): > 45.8 µM
- IC50 cell viability (ICRF193 200 nM): > 45.8 µM

Structure (SMILES): CC(C)(C)C(=O)OCOC(=O)[C@@H]1N2C(=O)[C@@H](NC(=O)[C@H](N)c3ccccc3)[C@H]2SC1(C)C [Pivampicillin]
- IC50 cell viability (ICRF193 0 nM): > 45.8 µM
- IC50 cell viability (ICRF193 200 nM): > 45.8 µM

Structure (SMILES): CC[C@H](C)C[C@H](C)CCCCCCCCC(=O)N[C@H]1C[C@@H](O)[C@@H](NCCN)NC(=O)[C@@H]2[C@@H](O)CCN2C(=O)[C@H]([C@H](O)CCN)NC(=O)[C@H]([C@H](O)[C@@H](O)c2ccc(O)cc2)NC(=O)[C@@H]2C[C@@H](O)CN2C(=O)[C@H]([C@@H](C)O)NC1=O [Caspofungin Acetate]
- IC50 cell viability (ICRF193 0 nM): > 45.8 µM
- IC50 cell viability (ICRF193 200 nM): > 45.8 µM

Structure (SMILES): C[C@H]1COc2c(C3(N)CC3)c(F)cc3c(=O)c(C(=O)O)cn1c23 [Pazufloxacin]
- IC50 cell viability (ICRF193 0 nM): > 45.8 µM
- IC50 cell viability (ICRF193 200 nM): > 45.8 µM

Structure (SMILES): O=C(Nc1cccc2c(=O)cc(-c3nnn[nH]3)oc12)c1ccc(OCCCCc2ccccc2)cc1 [Pranlukast hydrate]
- IC50 cell viability (ICRF193 0 nM): > 45.8 µM
- IC50 cell viability (ICRF193 200 nM): > 45.8 µM

Structure (SMILES): CC(C)COC(=O)c1ccc(N)cc1 [Isocaine]
- IC50 cell viability (ICRF193 0 nM): > 45.8 µM
- IC50 cell viability (ICRF193 200 nM): > 45.8 µM

Structure (SMILES): Cc1[nH]c(=O)c(C#N)cc1-c1ccncc1 [Milrinone]
- IC50 cell viability (ICRF193 0 nM): > 45.8 µM
- IC50 cell viability (ICRF193 200 nM): > 45.8 µM

Structure (SMILES): CO[C@@H]1[C@@H](O[C@@H]2O[C@H](C)[C@@H](O[C@H]3C[C@@](C)(O)[C@@H](O)[C@H](C)O3)[C@H](N(C)C)[C@H]2O)[C@@H](CC=O)C[C@@H](C)[C@@H](O[C@H]2CC[C@H](N(C)C)[C@@H](C)O2)/C=C/C=C/C[C@@H](C)OC(=O)C[C@H]1OC(C)=O [Spiramycin II]
- IC50 cell viability (ICRF193 0 nM): > 45.8 µM
- IC50 cell viability (ICRF193 200 nM): > 45.8 µM

Structure (SMILES): Nc1c(Br)cc(Br)cc1CN[C@H]1CC[C@H](O)CC1 [Ambroxol hydrochloride]
- IC50 cell viability (ICRF193 0 nM): > 45.8 µM
- IC50 cell viability (ICRF193 200 nM): > 45.8 µM

Structure (SMILES): Nc1cc(N2CCCCC2)nc(N)[n+]1[O-] [Minoxidil]
- IC50 cell viability (ICRF193 0 nM): > 45.8 µM
- IC50 cell viability (ICRF193 200 nM): > 45.8 µM

Structure (SMILES): CN1CCCN=C1/C=C/c1cccc(O)c1 [OXANTEL PAMOATE]
- IC50 cell viability (ICRF193 0 nM): > 45.8 µM
- IC50 cell viability (ICRF193 200 nM): > 45.8 µM

Structure (SMILES): CCCCC1C(=O)NC(=O)N(C2CCCCC2)C1=O (configuration not stated) [Bucolome]
- IC50 cell viability (ICRF193 0 nM): > 45.8 µM
- IC50 cell viability (ICRF193 200 nM): > 45.8 µM

Structure (SMILES): O=C(O)CCn1c2c(c3ccccc31)C[C@H](NS(=O)(=O)c1ccc(F)cc1)CC2 [Ramatroban]
- IC50 cell viability (ICRF193 0 nM): > 45.8 µM
- IC50 cell viability (ICRF193 200 nM): > 45.8 µM

Structure (SMILES): CCCC(CCC)C(=O)O [Valproic acid sodium salt]
- IC50 cell viability (ICRF193 0 nM): > 45.8 µM
- IC50 cell viability (ICRF193 200 nM): > 45.8 µM

Structure (SMILES): CC(CN(C)C)CN1c2ccccc2CCc2ccccc21 (configuration not stated) [Trimipramine maleate]
- IC50 cell viability (ICRF193 0 nM): > 45.8 µM
- IC50 cell viability (ICRF193 200 nM): > 45.8 µM

Structure (SMILES): COc1cc2c(cc1OC)C13CC[N+]4([O-])CC5=CCOC6CC(=O)N2C1C6C5CC34 (configuration not stated) [Brucine-N-oxide]
- IC50 cell viability (ICRF193 0 nM): > 45.8 µM
- IC50 cell viability (ICRF193 200 nM): > 45.8 µM

Structure (SMILES): CNC(C)C(O)c1ccc(O)cc1 (configuration not stated)
- IC50 cell viability (ICRF193 0 nM): > 45.8 µM
- IC50 cell viability (ICRF193 200 nM): > 45.8 µM

Structure (SMILES): CNC(=O)Oc1ccc2c(c1)[C@]1(C)CCN(C)[C@@H]1N2C [Physostigmine]
- IC50 cell viability (ICRF193 0 nM): > 45.8 µM
- IC50 cell viability (ICRF193 200 nM): > 45.8 µM

Structure (SMILES): CC(C(=O)O)c1ccc(CC2CCCC2=O)cc1 (configuration not stated) [Loxoprofen]
- IC50 cell viability (ICRF193 0 nM): > 45.8 µM
- IC50 cell viability (ICRF193 200 nM): > 45.8 µM

Structure (SMILES): O=C(O)CCCC[C@@H]1SC[C@@H]2NC(=O)N[C@@H]21 [Biotin]
- IC50 cell viability (ICRF193 0 nM): > 45.8 µM
- IC50 cell viability (ICRF193 200 nM): > 45.8 µM

Structure (SMILES): Cc1cccn2c(=O)c(-c3nnn[nH]3)cnc12 [Pemirolast potassium]
- IC50 cell viability (ICRF193 0 nM): > 45.8 µM
- IC50 cell viability (ICRF193 200 nM): > 45.8 µM

Structure (SMILES): CC(C)(Oc1ccc(Cl)cc1)C(=O)OCCCOC(=O)C(C)(C)Oc1ccc(Cl)cc1 [Cholesolvin]
- IC50 cell viability (ICRF193 0 nM): > 45.8 µM
- IC50 cell viability (ICRF193 200 nM): > 45.8 µM

Reference: the supplement of paper PMC12137928
